For 26 compounds, MIC80 results are on record in patent US8940768B2, “Antifungal triazole derivatives” (Daewoong Pharmaceutical Co., Ltd., priority 2010, dated 2015).

This experiment deals with Candida albicans. Kind of experiment: in vitro antifungal activity (MIC80), Candida albicans. It is filed as cell-based. Conditions: 80% growth inhibition vs negative control, RPMI 1640, read 24 hrs after application, Table 2, read-out: Antifungal Activity (MIC80) Candida albicans. As to the method: The compounds of the present invention were evaluated for inhibitory activity against yeast molds including Candida albicans, Candida glabrata, Candida krusei, Candida tropicalis, Candida parapsilosis, and Cryptococcus neoformans, and filamentous fungi including Aspergillus fumigatus, Trichophyton mentagrophytes (obtained from KCTC (Korean Collection for Type Cultures), and Trichophyton rubrum (obtained from KCCM (Korean Culture Center of Microorganisms). All the strains, but Trichophyton mentagrophytes and Trichophyton rubrum, were purchased from the ATCC (American Type Culture Collection).
Of the strains used in this test, Candida albicans, Candida glabrata, Candida krusei, Candida tropicalis, Candida parapsilosis, Trichophyton mentagrophytes and Trichophyton rubrum were inoculated into sabouraud dextrose agars (Difco, BD-0109), Cryptococcus neoformans into a yeast mold agar (YM agar, Difco, 271210), and Aspergillus fumigatus into a malt extract agar (Difco, 211220), before incubation at 35° C. for two to ten days.
From the agars on which the yeast molds were grown, single colonies were picked up, and each was sufficiently suspended in 5 mL of already prepared, 0.85% sterile saline. After correction of the absorbance to 0.108 at 530 nm, each of the suspensions was diluted to a ratio of 1:50 in an RPMI (Roswell park memorial institute) 1640 medium and then to a ratio of 1:20 to prepare an inoculum having a cell density of from 1.0×10^3 to 5.0×10^3CFU/mL. The cell density was adjusted into […]˜5.0×10^4 CFU/mL for Aspergillus fumigates and 0.4×10^4˜5.0×10^4 CFU/mL for both Trichophyton mentagrophytes and Trichophyton rubrum.
The antifungal agent samples were prepared by diluting the active compounds in an RPMI 1640 medium to a serial density of from 0.0156 to 32 μg/mL. In this context, dimethylsulfoxide (DMSO) was used as an excipient at a final concentration of 1% (v/v). The serial dilutions were aliquoted at a volume of 0.1 mL and applied to 0.1 mL of the aliquots of each inoculum, followed by incubation.
With the naked eyes, an observation was made of all of the yeast molds, but Cryptococcus neoformans 24 hrs after the application, Cryptococcus neoformans and Aspergillus fumigatus 48 hrs after the application, and Trichophyton mentagrophytes and Trichophyton rubrum five days after the application to examine whether the fungi grew or not. In addition, Alamarblue™ as used to determine the concentrations of the compounds of the present invention at which the growth of the microorganisms was 80% inhibited compared to that of the negative control. All experiments were performed in duplicate for each of the test concentration groups.
Turning to `C[C@@H](N1CCC(Oc2ccccc2F)CC1)[C@](O)(Cn1cncn1)c1ccc(F)cc1F` [Example 3, (2R,3R)-2-(2,4-difluorophenyl)-3-(4-(2-fluorophenoxy)piperidin-1-yl)-1-(1H-1,2,4-triazol-1-yl)butan-2-ol], the MIC80 (in general, an inhibitory concentration at the 80% level, which refers to growth in some studies and to a panel of isolates in others) is at most 0.015 µg/mL.

As to `C[C@@H](N1CCC(Oc2ccc(C#N)cc2)CC1)[C@](O)(Cn1cncn1)c1ccc(F)cc1F` [Example 16, 4-((1-((2R,3R)-3-(2,4-difluorophenyl)-3-hydroxy-4-(1H-1,2,4-triazol-1-yl)butan-2-yl)piperidin-4-yl)oxy)benzonitrile], the MIC80 was at most 0.015 µg/mL. For `C[C@@H](N1CCC(Oc2ccc(F)cn2)CC1)[C@](O)(Cn1cncn1)c1ccc(F)cc1F` [Example 25, (2R,3R)-2-(2,4-difluorophenyl)-3-(4-((5-fluoropyridin-2-yl)oxy)piperidin-1-yl)-1-(1H-1,2,4-triazol-1-yl)butan-2-ol], the MIC80 was at most 0.015 µg/mL. For `C[C@@H](N1CCC(Oc2ccc(Cl)cn2)CC1)[C@](O)(Cn1cncn1)c1ccc(F)cc1F` [Example 26, (2R,3R)-3-(4-((5-chloropyridin-2-yl)oxy)piperidin-1-yl)-2-(2,4-difluorophenyl)-1-(1H-1,2,4-triazol-1-yl)butan-2-ol] the value was at most 0.015 µg/mL; for `C[C@@H](N1CCC(Oc2ncc(F)cn2)CC1)[C@](O)(Cn1cncn1)c1ccc(F)cc1F` [Example 30, (2R,3R)-2-(2,4-difluorophenyl)-3-(4-((5-fluoropyrimidin-2-yl)oxy)piperidin-1-yl)-1-(1H-1,2,4-triazol-1-yl)butan-2-ol], at most 0.015 µg/mL; for `C[C@@H](N1CCC(Nc2ccccc2)CC1)[C@](O)(Cn1cncn1)c1ccc(F)cc1F` [Example 35, (2R,3R)-2-(2,4-difluorophenyl)-3-(4-(phenylamino)piperidin-1-yl)-1-(1H-1,2,4-triazol-1-yl)butan-2-ol], at most 0.015 µg/mL. The same measure for `C[C@@H](N1CCC(Nc2ccc(F)cc2)CC1)[C@](O)(Cn1cncn1)c1ccc(F)cc1F` [Example 38, (2R,3R)-2-(2,4-difluorophenyl)-3-(4-((4-fluorophenyl)amino)piperidin-1-yl)-1-(1H-1,2,4-triazol-1-yl)butan-2-ol]: at most 0.015 µg/mL. In the case of `C[C@@H](N1CCC(Nc2ccc(C(F)(F)F)cc2)CC1)[C@](O)(Cn1cncn1)c1ccc(F)cc1F` [Example 46, (2R,3R)-2-(2,4-difluorophenyl)-1-(1H-1,2,4-triazol-1-yl)-3-(4-((4-(trifluoromethyl)phenyl)amino)piperidin-1-yl)butan-2-ol], the MIC80 was at most 0.015 µg/mL.

For the compound `C[C@@H](N1CCC(Nc2ccc(C#N)cc2)CC1)[C@](O)(Cn1cncn1)c1ccc(F)cc1F` [Example 49, 4-((1-((2R,3R)-3-(2,4-difluorophenyl)-3-hydroxy-4-(1H-1,2,4-triazol-1-yl)butan-2-yl)piperidin-4-yl)amino)benzonitrile], the MIC80 is at most 0.015 µg/mL. For `C[C@@H](N1CCC(Nc2ncc(C(F)(F)F)cc2Cl)CC1)[C@](O)(Cn1cncn1)c1ccc(F)cc1F` [Example 60, (2R,3R)-3-(4-((3-chloro-5-(trifluoromethyl)pyridin-2-yl)amino)piperidin-1-yl)-2-(2,4-difluorophenyl)-1-(1H-1,2,4-triazol-1-yl)butan-2-ol] the value was at most 0.015 µg/mL. In the case of `C[C@@H](N1CCC(Nc2ncccn2)CC1)[C@](O)(Cn1cncn1)c1ccc(F)cc1F` [Example 62, (2R,3R)-2-(2,4-difluorophenyl)-3-(4-(pyrimidin-2-ylamino)piperidin-1-yl)-1-(1H-1,2,4-triazol-1-yl)butan-2-ol], the MIC80 is at most 0.015 µg/mL. The same measure for `C[C@@H](N1CCC(Nc2ncc(Br)cn2)CC1)[C@](O)(Cn1cncn1)c1ccc(F)cc1F` [Example 64, (2R,3R)-3-(4-((5-bromopyrimidin-2-yl)-amino)piperidin-1-yl)-2-(2,4-difluorophenyl)-1-(1H-1,2,4-triazol-1-yl)butan-2-ol]: at most 0.015 µg/mL. Regarding `C[C@@H](N1CCC(N(C)c2ccccc2)CC1)[C@](O)(Cn1cncn1)c1ccc(F)cc1F` [Example 67, (2R,3R)-2-(2,4-difluorophenyl)-3-(4-(methyl(phenyl)amino)piperidin-1-yl)-1-(1H-1,2,4-triazol-1-yl)butan-2-ol], the MIC80 is at most 0.015 µg/mL. For `C[C@@H](N1CCC(N(C)c2ccc(F)cc2)CC1)[C@](O)(Cn1cncn1)c1ccc(F)cc1F` [Example 70, (2R,3R)-2-(2,4-difluorophenyl)-3-(4-((4-fluorophenyl)(methyl)amino)piperidin-1-yl)-1-(1H-1,2,4-triazol-1-yl)butan-2-ol] the value was at most 0.015 µg/mL. The same measure for `C[C@@H](N1CCC(N(C)c2ccc(Cl)cc2)CC1)[C@](O)(Cn1cncn1)c1ccc(F)cc1F` [Example 73, (2R,3R)-3-(4-((4-chlorophenyl)(methyl)amino)piperidin-1-yl)-2-(2,4-difluorophenyl)-1-(1H-1,2,4-triazol-1-yl)butan-2-ol]: at most 0.015 µg/mL; for `C[C@@H](N1CCC(N(C)c2ccc(C(F)(F)F)cc2)CC1)[C@](O)(Cn1cncn1)c1ccc(F)cc1F` [Example 79, (2R,3R)-2-(2,4-difluorophenyl)-3-(4-(methyl(4-(trifluoromethyl)phenyl)amino)piperidin-1-yl)-1-(1H-1,2,4-triazol-1-yl)butan-2-ol]: at most 0.015 µg/mL; for `C[C@@H](N1CCC(N(C)c2ccc(C#N)cc2)CC1)[C@](O)(Cn1cncn1)c1ccc(F)cc1F` [Example 82, 4-((1-((2R,3R)-3-(2,4-difluorophenyl)-3-hydroxy-4-(1H-1,2,4-triazol-1-yl)butan-2-yl)piperidin-4-yl)(methyl)amino)benzonitrile]: at most 0.015 µg/mL.

Consider `C[C@@H](OC1CCN(c2ncccn2)CC1)[C@](O)(Cn1cncn1)c1ccc(F)cc1F` [Example 89, (2R,3R)-2-(2,4-difluorophenyl)-3-((1-(pyrimidin-2-yl)piperidin-4-yl)oxy)-1-(1H-1,2,4-triazol-1-yl)butan-2-ol], for which the MIC80 is at most 0.015 µg/mL. For `C[C@@H](OC1CCN(c2ccccc2)CC1)[C@](O)(Cn1cncn1)c1ccc(F)cc1F` [Example 90, (2R,3R)-2-(2,4-difluorophenyl)-3-((1-phenylpiperidin-4-yl)oxy)-1-(1H-1,2,4-triazol-1-yl)butan-2-ol] the value was at most 0.015 µg/mL; for `C[C@@H](OC1CCN(c2ccc(F)cc2)CC1)[C@](O)(Cn1cncn1)c1ccc(F)cc1F` [Example 93, (2R,3R)-2-(2,4-difluorophenyl)-3-((1-(4-fluorophenyl)piperidin-4-yl)oxy)-1-(1H-1,2,4-triazol-1-yl)butan-2-ol], at most 0.015 µg/mL. For `C[C@@H](OC1CCN(c2ccc(Cl)cc2)CC1)[C@](O)(Cn1cncn1)c1ccc(F)cc1F` [Example 96, (2R,3R)-3-((1-(4-chlorophenyl)piperidin-4-yl)oxy)-2-(2,4-difluorophenyl)-1-(1H-1,2,4-triazol-1-yl)butan-2-ol] the value was at most 0.015 µg/mL; for `C[C@@H](OC1CCN(c2ccc(C(F)(F)F)cc2)CC1)[C@](O)(Cn1cncn1)c1ccc(F)cc1F` [Example 102, (2R,3R)-2-(2,4-difluorophenyl)-1-(1H-1,2,4-triazol-1-yl)-3-((1-(4-(trifluoromethyl)phenyl)piperidin-4-yl)oxy)butan-2-ol], at most 0.015 µg/mL; for `C[C@@H](OC1CCN(c2ccc(C#N)cc2)CC1)[C@](O)(Cn1cncn1)c1ccc(F)cc1F` [Example 105, 4-(4-(((2R,3R)-3-(2,4-difluorophenyl)-3-hydroxy-4-(1H-1,2,4-triazol-1-yl)butan-2-yl)oxy)piperidin-1-yl)benzonitrile], at most 0.015 µg/mL. The same measure for `C[C@@H](OC1CCN(c2ccc(F)cn2)CC1)[C@](O)(Cn1cncn1)c1ccc(F)cc1F` [Example 114, (2R,3R)-2-(2,4-difluorophenyl)-3-((1-(5-fluoropyridin-2-yl)piperidin-4-yl)oxy)-1-(1H-1,2,4-triazol-1-yl)butan-2-ol]: at most 0.015 µg/mL; for `C[C@@H](OC1CCN(c2ccc(Cl)cn2)CC1)[C@](O)(Cn1cncn1)c1ccc(F)cc1F` [Example 115, (2R,3R)-3-((1-(5-chloropyridin-2-yl)piperidin-4-yl)oxy)-2-(2,4-difluorophenyl)-1-(1H-1,2,4-triazol-1-yl)butan-2-ol]: at most 0.015 µg/mL; for `Cc1cc(C(F)(F)F)cnc1N1CCC(O[C@H](C)[C@](O)(Cn2cncn2)c2ccc(F)cc2F)CC1` [Example 116, (2R,3R)-2-(2,4-difluorophenyl)-3-((1-(3-methyl-5-(trifluoromethyl)pyridin-2-yl)piperidin-4-yl)oxy)-1-(1H-1,2,4-triazol-1-yl)butan-2-ol]: at most 0.015 µg/mL.
